Data reported in patent US9717737B2, “Vacuolin-1 as an inhibitor of autophagy and endosomal trafficking and the use thereof for inhibiting tumor progression” (The University of Hong Kong, priority 2014, dated 2017).

Tests used:
[1] = system: HeLa, PC3, HepG2, MCF7, and A549 cells; format: cell-based
Description: MTT cell proliferation assay—Cells were treated in four replicates and seeded into 96-well plate. Following drug treatment, MTT solution of 20 μl for every 100 μl medium was added to wells and incubated for 2 hours, followed by the addition of 150 μL of the DMSO solution to each well. The final reaction product, a purple formazan solution, was detected by a microplate reader (Techan infinite M200) for absorbance at a wavelength of 570 nm and a reference wavelength of 630 nm.

HeLa cells [2] = assay: Lysosomal pH measurement (LysoSensor Green DND-189, LysoSensor Yellow/Blue DND-160); format: cell-based; details: 1 μM
Description: Lysosomal pH measurement—LysoSensor Green DND-189 is commonly used to measure the pH of acidic organelles, such as lysosomes, which become more fluorescent in acidic environments. Briefly, cells were loaded with 1 μMLysoSensor Green DND-189 in pre-warmed regular medium for 20 min at 37° C. Then the cells were washed twice with PBS and immediately analyzed by flow cytometry (collecting FL1 fluorescence and 10,000 cells were collected for each sample) or in a microplate reader (excitation/emission=485/530 nm).
Quantification of lysosomal pH was performed using a ratiometriclysosomal pH dye LysoSensor Yellow/Blue DND-160. The pH calibration curve was generated as described previously (Bankers-Fulbright et al., 2004). Briefly, cells were trypsinized and labeled with 2 μM Lysosensor Yellow/Blue DND-160 for 30 min at 37° C. in regular medium, and excessive dye was washed out using PBS. […] Quantitative comparisons were performed in a 96-well plate, and the fluorescence was measured with a microplate reader at 37° C. Light emitted at 440 and 535 nm in response to excitation at 340 and 380 nm were measured, respectively. The ratio of light emitted with 340 and 380 nm excitation was plotted against the pH values in IVIES buffer, and the pH calibration curve for the fluorescence probe was generated from the plot using Microsoft Excel.

HeLa cells [3] = assay: DQ-BSA-green degradation assay (flow cytometry); format: cell-based; details: 1 μM
Description: Since the increase of lysosomal pH normally compromises the lysosomal activity, it was assessed whether vacuolin-1 affects the general lysosomal functions to inhibit autophagy maturation. […] Next, an epidermal growth factor receptor (EGFR) degradation assay was performed to examine whether vacuolin-1 affects the general endosomal-lysosomal pathway. In this assay, HeLa cells were treated with EGF in the presence or absence of vacuolin-1. After EGF binds to its receptors (EGFR), the receptor complex undergoes endocytosis and is targeted tolysosomes for degradation. […] Similarly, a DQ-BSA-green degradation assay was applied to measure the general endosomal-lysosomal degradation. DQ-BSA-green is a BSA labeled with a self-quenching fluorescent dye. After DQ-BSA-green is delivered to lysosomes via endocytosis, it is hydrolyzed into single dye-labeled peptides by lysosomal proteases, thereby relieving self-quenching and the fluorescence can subsequently be monitored by flow cytometry.

CNE-1 and HONE-1 cells [4] = format: cell-based, human
Description: (§1) Although CQ has already been applied to treat a wide spectrum of human cancers, CQ induces ocular or renal toxicity and easily triggers drug resistance (Kimura et al., 2013). […] We first investigated the anti-tumor effects of vacuolin-1 in two nasopharyngeal carcinoma cell lines, CNE-1 and HONE-1. […] Alternatively, colony formation assay was performed to assess whether vacuolin-1 affects the ability of a single tumor cell to grow into a colony. […] We subsequently performed wound healing assay to assess whether vacuolin-1 affects the migration of tumor cells. […] Obviously, vacuolin-1 is an efficient anti-tumor agent in vitro.

CNE-1 and HONE-1 cells [5] = assay: Colony formation assay, nasopharyngeal carcinoma cells; format: cell-based, human; details: CNE-1 or HONE-1 cells
Description: as §1

CNE-1 and HONE-1 cells [6] = assay: Wound healing assay; format: cell-based, human
Description: as §1

[7] = system: human lung cancer stem cells (hLCSCs); assay: Cell proliferation of lung cancer stem cells; format: cell-based
Excerpt: (§2) Cancer stem cells (CSCs), a subpopulation of cells within tumors, actually drive tumor growth and recurrence. CSCs are resistant to many current cancer treatments, including chemo- and radiation therapy, thus they can survive these therapy to regenerate new tumors. […] Therefore, it is of great interest to assess the anti-tumor effects of vacuolin-1 on CSCs.

[8] = system: human lung cancer stem cells (hLCSCs); assay: Migration of hLCSCs; format: cell-based; details: >10 μM
Excerpt: as §2

[9] = system: human lung cancer stem cells (hLCSCs); assay: Invasion of hLCSCs; format: cell-based; details: >10 μM
Excerpt: as §2

LCSC tumor xenograft = LCSC tumor xenograft in BALB/c nude mice; format: in vivo
Description: (§3) We first assessed the ability of vacuolin-1 to suppress LCSC tumor xenograft in BALB/c nude mice. Briefly, 1×10^4 lung cancer stem cells (LCSCs, 3rd generation) were suspended in Matrigel (BD Biosciences) at a ratio of 1:1, and 200 iL of cells was subcutaneously injected into the back of nude mice. The tumor volume was measured every five days after injection and calculated from the formula: length×width×depth×π/6. Mice were removed from the study when their tumor volumes exceed 2000 mm^3 (FIG. 18A). […] Also, we tested the acute toxicity of vacuolin-1 in mice.

Acute toxicity in mice = format: in vivo; details: young adult mice
Description: as §3

[10] = nude mice, intratumoral injection 5 mg/kg twice a week

SMILES: Ic1cccc(/C=N/Nc2nc(N3CCOCC3)nc(N(c3ccccc3)c3ccccc3)n2)c1 [vacuolin-1]
- cell toxicity (MTT cell viability) [1]: much less cell toxicity than CQ
- lysosomal pH, qualitative (LysoSensor Green DND-189) (HeLa cells [2]): raised lysosomal pH
- lysosomal pH, quantitative ratiometric (LysoSensor Yellow/Blue DND-160) (HeLa cells [2]; control cells pH 4.7): 5.2 pH
- degradation of DQ-BSA-green by lysosomes (HeLa cells [3]): markedly inhibited the degradation of BSA
- cell toxicity, treatment alone (CNE-1 and HONE-1 cells [4]): little cell toxicity
- synergistic effects on inhibiting tumor cell proliferation in combination with taxol, 5-FU, temsirolimus (CNE-1 and HONE-1 cells [4]): almost no synergistic effects
- size and number of colonies generated from single cell (CNE-1 and HONE-1 cells [5]): dramatically reduced the size and number of colonies
- migration of tumor cells (wound healing) (CNE-1 and HONE-1 cells [6]): efficiently suppressed the migration
- cell proliferation of hLCSCs [7]: did not affect the cell proliferation
- migration of hLCSCs [8]: almost completely inhibited
- invasion of hLCSCs [9]: almost completely inhibited
- autophagy in tumors (LCSC tumor xenograft; LCSC xenograft, vacuolin-1 treatment): markedly inhibited autophagy
- tumor growth of LCSC xenograft (LCSC tumor xenograft; [10]): markedly inhibited tumor growth
- weight gain of xenograft mice (LCSC tumor xenograft; [10]): little effects
- activity and weight gain compared to control (Acute toxicity in mice; intraperitoneal 250 mg/kg, after two weeks): normal activity and weight gain
- acute toxicity (Acute toxicity in mice; intraperitoneal injection 250 mg/kg): little acute toxicity
